Data reported in patent publication US9896466B2 (Smart Brain S.R.O., priority 2013, dated 2018).

What was measured:
[1] = tested on: mitochondrial complex I; experiment: Respiration via mitochondrial complexes I and II, Oxygraf; assay type: cell-based, human; settings: MCF7 cells, respiration at increasing doses
Description: Respiration (oxygen consumption linked with ATP formation) is related to 10^6 cells and is shown as a relative value with the beginning level of respiration marked with the relative value of 1.

[2] = tested on: MCF7 sublines differing in HER2 levels; experiment: Formation of reactive oxygen species (ROS); assay type: cell-based, human; settings: 5 μM, 1 h exposure
Description: A property typically associated a number of mitocans is their ability to increase oxidative stress (formation of reactive oxygen species, ROS), selectively in cancer cells, especially associated with their action on mitochondrial complexes participating with oxidative phosphorylation. […] We tested formation of ROS also for MitoTAX.

[3] = tested on: oestrogen receptor ERα; experiment: ERα expression by real-time PCR; assay type: cell-based; settings: 1 μM
[4] = tested on: MCF7HER2−; settings: FIG. 4, survival, crystal violet
Description: MitoTAX prepared according to Example 6 was tested for its effect on breast cancer cell lines. Lines with different levels of HER2 protein expression and oestrogen receptor α. (ERα) were used. The cell line MCF7 features a relatively low expression of the HER2 protein. For the testing of killing of breast cancer cells with different HER2 protein levels by MitoTAX, we prepared HER2^− and HER^+ MCF7 cells. MCF7 cells were transfected with the vector with a ‘non-silencing’ sequence (NS), with a ‘short hairpin’ sequence attenuating the expression of HER2 (sh) and with the vector with a gene for HER2. […] In the subsequent work, the sublines NS, Sh1 26 (clone 26) and +11 (clone 11) were used.
The individual values were determined from the survival curves of cells at various concentrations of both substances using the crystal violet method.

[5] = tested on: mitochondrial potential; experiment: Decrease in mitochondrial potential; assay type: cell-based; settings: 5 μM, within 1 h

Row | SMILES | concentration at which complex I is inhibited preferably to complex II [1] | generation of ROS [2] | reduction of ERα expression [3] | response of line with reduced HER2 expression (clone 26) [4] | reduction of mitochondrial potential [5]
1 | CC/C(=C(\c1ccccc1)c1ccc(OCCN(C)C)cc1)c1ccccc1 [TAX, tamoxifen] | exceeding 20 μM | markedly less effective | ineffective | exactly opposite | 
2 | N#CC(C#N)=NNc1cccc(Cl)c1 [CCCP] |  |  |  |  | reduces the mitochondrial potential to its basal value
